One experiment addresses HDM2 protein (Homo sapiens, UniProt Q00987). Kind of experiment: fluorescence polarization screening assay (FP IC50). It counts as binding. To be noted: first value of the cell (FP), read-out: FP/ SJSA IC50 (nM): FP IC50. Here is the method:
The compounds were evaluated to determine activity at the HDM2 protein by known methods such as the fluorescence polarization screening assay that measures the inhibitory concentration that achieves 50% of maximal activity (FP IC50) and the dissociation constant for inhibitor binding (FP Ki). [Zhang et al., J. Analytical Biochemistry 331: 138-146 (2004)].

In another experiment the test system is SJSA. Kind of experiment: Cell Viability Assay (CellTiter-Glo, ATP quantitation). It counts as cell-based. To be noted: second value of the cell (SJSA cell viability, e.g. 72 hours), read-out: FP/ SJSA IC50 (nM): SJSA IC50. Here is the method:
Additionally, compounds were tested for activity at the HDM2 protein using the Cell Viability Assay, which measures the number of viable cells in culture after treatment with the inventive compound for a certain period of time e.g. 72 hours based on quantitation of the ATP present (Cell Viability. IC50). [CellTiter-Glo® Luminescent Cell Viability Assay from Promega].

Among the data in patent US8987274B2, “Macrocycles that increase p53 activity and the uses thereof” (Merck Sharp & Dohme Corp, priority 2011, dated 2015) are IC50 values, retold here.

Like-named read-outs stand apart in the source and are kept apart here.

HDM2 protein, sequence (Q00987 whole entry): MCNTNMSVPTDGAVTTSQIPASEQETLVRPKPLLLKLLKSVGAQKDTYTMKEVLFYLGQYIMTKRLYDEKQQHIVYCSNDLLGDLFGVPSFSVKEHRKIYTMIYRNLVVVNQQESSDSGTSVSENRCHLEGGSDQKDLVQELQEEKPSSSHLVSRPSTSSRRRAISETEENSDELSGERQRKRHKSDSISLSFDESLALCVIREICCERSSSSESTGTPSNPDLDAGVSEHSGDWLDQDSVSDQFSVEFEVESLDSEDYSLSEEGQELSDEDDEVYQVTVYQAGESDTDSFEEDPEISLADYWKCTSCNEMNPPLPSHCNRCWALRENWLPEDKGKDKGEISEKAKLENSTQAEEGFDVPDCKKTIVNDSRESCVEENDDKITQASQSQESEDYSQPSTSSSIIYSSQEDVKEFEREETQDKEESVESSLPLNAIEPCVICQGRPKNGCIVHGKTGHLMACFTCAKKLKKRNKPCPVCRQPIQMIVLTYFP

`COCCOc1ccccc1N1CCN(C(=O)[C@]2(Oc3csc(C(F)(F)F)c3)CCCN3C(=O)c4c(C(F)(F)F)ccnc4OCC/C=C/C[C@@H]32)CC1` [Compound 1, 1-[2-(2- METHOXYETHOXY) PHENYL]-4-[[(10aR)- 6,7,10,10a,11,12,13,14- OCTAHYDRO-16- OXO-1- (TRIFLUOROMETHYL)- 11(S)-[[5- (TRIFLUOROMETHYL)- 3-THIENYL]OXY]-16H- DIPYRIDO[1,2-e:2′3′-b][1,5] OXOAAZACYCLOUNDECIN- 11-YL]CARBONYL] PIPERAZINE.]: the IC50 is 1 to 100 nM at HDM2 protein (class symbol) and 101 to 500 nM in the experiment on SJSA (class symbol).
For `O=C1c2c(C(F)(F)F)ccnc2OCC/C=C/C[C@H]2N1CCC[C@@]2(Oc1csc(C(F)(F)F)c1)C(=O)N1CCN(c2ccccc2OCCO)CC1` [Compound 2, 1-[2-(2- HYDROXYETHOXY) PHENYL]-4-[[(10aR)- 6,7,10,10a,11,12,13,14- OCTAHYDRO-16- OXO-1- (TRIFLUOROMETHYL)- 11(S)-[[5- (TRIFLUOROMETHYL)-3- THIENYL]OXY]-16H- PYRIDO[1,2-e:2′,3′-b][1,5] OXAAZACYCLOUNDECIN- 11-YL]CARBONYL] PIPERAZINE.], in that order: 1 to 100 nM and 501 to 1000 nM.
For `COCCOc1ccccc1N1CCN(C(=O)[C@]2(Oc3csc(C(F)(F)F)c3)CCCN3C(=O)c4c(C(F)(F)F)ccnc4OCCCC/C=C/C[C@@H]32)CC1` [Compound 3, 1-[[(12aR)- 6,7,8,9,12,12a,13,14,15,16- DECAHYDRO-18-OXO-1- (TRIFLUOROMETHYL)- 13(S)-[[5- (TRIFLUOROMETHYL)-3- THIENYL]OXY]-18H- DIPYRIDO[1,2-e:2′,3′-b][1,5] OXAAZACYCLOTRIDECIN- 13-YL]CARBONYL]-4- [2-(2-METHOXYETHOXY) PHENYL]PIPERAZINE.], in that order: 1 to 100 nM and 1000 to 3000 nM.
Regarding `O=C1c2c(C(F)(F)F)ccnc2OCCC/C=C\C[C@H]2N1CCC[C@@]2(Oc1csc(C(F)(F)F)c1)C(=O)N1CCN(c2ccccc2OCCO)CC1` [Compound 4, 1-[2-(2- HYDROXYETHOXY) PHENYL]-4-[[(11aR)- 7,8,11,11a,12,13,14,15- OCTAHYDRO-17-OXO-1- (TRIFLUOROMETHYL)- 12(S)-[[5- (TRIFLUOROMETHYL)-3- THIENYL]OXY]-6H,17H- DIPYRIDO[1,2-e:2′,3′-b][1,5] OXAAZACYCLODODECIN- 12-YL]CARBONYL] PIPERAZINE.], the IC50 on HDM2 protein (class symbol) was in the range of 1 to 100 nM; with SJSA (class symbol), 501 to 1000 nM.
On to `O=C1c2c(C(F)(F)F)ccnc2OCCCCCC[C@H]2N1CCC[C@@]2(Oc1csc(C(F)(F)F)c1)C(=O)N1CCN(c2ccccc2OCCO)CC1` [Compound 5, 1-[[(11aR)- 7,8,9,10,11,11a,12,13,14,15- DECAHYDRO-17-OXO-1- (TRIFLUOROMETHYL)- 12-[[5- (TRIFLUOROMETHYL)-3- THIENYL]OXY]-6H,17H- DIPYDRIDO[1,2-e:2′,3′-b][1,5] OXAAZACYCLODODECIN- 12(S)-YL]CARBONYL]-4- [2-(2-HYDROXYETHOXY) PHENYL]PIPERAZINE.], for which the IC50 lay in the range of 1 to 100 nM on HDM2 protein (class symbol) and 1000 to 3000 nM with SJSA (class symbol).
As for `O=C1c2c(C(F)(F)F)ccnc2OCCCC/C=C\C[C@H]2N1CCC[C@@]2(Oc1csc(C(F)(F)F)c1)C(=O)N1CCN(c2ccccc2OCCO)CC1` [Compound 6, 1-[[(12aR)- 6,7,8,9,12,12a,13,14,15,16- DECAHYDRO-18-OXO-1- (TRIFLUOROMETHYL)- 13-[[5- (TRIFLUOROMETHYL)-3- THIENYL]OXY]-18H- DIPYDRIDO[1,2-e:2′,3′-b][1,5] OXAAZACYCLOTRIDECIN- 13(S)-YL]CARBONYL]-4- [2-(2-HYDROXYETHOXY) PHENYL]PIPERAZINE.], the IC50 on HDM2 protein (number) came out at 20 nM; in the experiment with SJSA (number) it was 642 nM.
For the compound `O=C1c2c(C(F)(F)F)ccnc2OCCCCCCC[C@H]2N1CCC[C@@]2(Oc1csc(C(F)(F)F)c1)C(=O)N1CCN(c2ccccc2OCCO)CC1` [Compound 7, 1-[[(12aR)-6,7,8,9,10,11,12,12a, 13,14,15,16-DODECAHYDRO- 18-OXO-1- (TRIFLUOROMETHYL)- 13(S)-[[5- (TRIFLUOROMETHYL)-3- THIENYL]OXY]-18H- DIPYRIDO[1,2-e:2′,3′-b][1,5] OXAAZACYCLOTRIDECIN- 13-YL]CARBONYL]-4- [2-(2- HYDROXYETHOXY) PHENYL]PIPERAZINE.], the IC50 at HDM2 protein (class symbol) was in the range of 1 to 100 nM.
As for `O=C(O)CCCOc1ccccc1N1CCN(C(=O)[C@]2(Oc3csc(C(F)(F)F)c3)CCCN3C(=O)c4c(C(F)(F)F)ccnc4OCCC/C=C\C[C@@H]32)CC1` [Compound 8, 4-[2-[4-[[(11aR)- 7,8,11,11a,12,13,14,15- OCTAHYDRO-17-OXO-1- (TRIFLUOROMETHYL)- 12(S)-[[5- (TRIFLUOROMETHYL)-3- THIENYL]OXY]-6H,17H- DIPYRIDO[1,2-e:2′,3′-b][1,5] OXAAZACYCLODODECIN- 12-YL]CARBONYL]-1- PIPERAZINYL]PHENOXY] BUTANOIC ACID.], the figures for the IC50 at HDM2 protein (class symbol) and in the experiment with SJSA (class symbol) were 1 to 100 nM and 101 to 500 nM, respectively.
As to `O=C1c2c(C(F)(F)F)ccnc2OCCCC[C@H]2N1CCC[C@@]2(Oc1csc(C(F)(F)F)c1)C(=O)N1CCN(c2ccccc2OCCO)CC1` [Compound 9, 1-[2-(2- HYDROXYETHOXY) PHENYL]-4-[[(9aR)- 7,8,9,9a,10,11,12,13- OCTAHYDRO-15-OXO-1- (TRIFLUOROMETHYL)- 10(S)-[[5- (TRIFLUOROMETHYL)- 3-THIENYL]OXY]-6H,15H- DIPYRIDO[1,2-e:2′,3′-b][1,5] OXAZECIN-10-YL] CARBONYL]PIPERAZINE.], at HDM2 protein (class symbol), the IC50 fell in the range of 1000 to 3000 nM.
In the case of `N#CC1(c2ccccc2OCCCC2(C(=O)O)CCC2)CCN(C(=O)[C@]2(Oc3csc(C(F)(F)F)c3)CCCN3C(=O)c4c(C(F)(F)F)ccnc4OCCCCCC[C@@H]32)CC1` [Compound 13, 1-[3-[2-[4-CYANO-1- [[(11a)-7,8,9,10,11,11a,12,13, 14,15-DECAHYDRO-17- OXO-1- (TRIFLUOROMETHYL)- 12(S)-[[5- (TRIFLUOROMETHYL)-3- THIENYL]OXY]-6H,17H- DIPYRIDO[1,2-e:2′,3′-b][1,5] OXAAZACYCLODODECIN- 12YL]CARBONYL]-4- PIPERIDINYL]PHENOXY] PROPYL]CYCLOBUTANE- CARBOXYLIC ACID.], the IC50 at HDM2 protein (class symbol) is 1 to 100 nM; in the experiment on SJSA (class symbol), 101 to 500 nM.
